“And” between values parts separate entries of the source, which are not always exact repeats. Identical values can stand only once.
What was measured:
[1] = tested on: advanced solid tumors; experiment: Radiological efficacy per RECIST 1.1 (ORR, DCR, CBR, PFS, DoR, best response); assay type: in vivo, human; parameters: key to Best response, individual patient: CR, complete response; PR, partial response; SD, stable disease; PD, progressive disease; Two best responses marked as NE represented SD lasting less than 5 weeks
Description: The primary endpoints of the phase Ia included (i) the type and frequency of treatment emergent adverse events (TEAEs) which were assessed per National Cancer Institute Common Terminology Criteria for Adverse Events (NCI-CTCAE) v4.03, laboratory results, electrocardiogram (ECG), cardiac imaging, physical examination findings (including vital signs, weight, and ECOG scores), (ii) number and proportion of subjects who occurred DLTs in each dose group during dose-escalation stage, (iii) the MTD, if the MTD was not observed, the RP2D will be determined through PK/PD data, safety and preliminary efficacy. The secondary endpoints included preliminary efficacy assessments based on ORR, PFS, DoR, DCR, and clinical benefit rate, assessed per RECIST 1.1,PK parameters for CYH33 and its metabolite I27, and changes in PD biomarkers in response to CYH33 treatment.
The analysis of the phase Ia study was pre-planned and reviewed by the SMC. The Kaplan–Meier method was used to summarize time-to-event endpoints. Response rates were summarized using a point estimate and 95% Clopper–Pearson confidence interval. The full analysis set (FAS) included all study patients who received at least one dose of study drug and was used for the analysis of baseline characteristics. The safety analysis set included all study patients who had received at least one dose of the study drug and was used for all safety analysis. The efficacy evaluable analysis set included patients who received at least one dose of CYH33 and had baseline tumor assessment data and at least one post-baseline tumor assessment. All statistical analyses were performed using SAS software v9.3 (Cary, North Carolina, USA). No data were excluded from the analyses. As a phase Ia, open label, dose-escalation and -expansion study, the study was not randomized, and the investigators were not blinded to allocation during trial and outcome assessment.

[2] = tested on: Caco-2 cells; parameters: method as in Investigator's Brochure (IB) 12; conditions: 2.00 - 10.0 µM; efflux transporters may be involved; ref Investigator's Brochure (IB) 12; cited from earlier work
[3] = evaluable analysis set, 30 mg QD, n = 9
[4] = evaluable analysis set, 40 mg QD, n = 19
[5] = evaluable analysis set, 1–20 mg QD, n = 10
[6] = evaluable analysis set, all patients 1–60 mg QD, n = 42
[7] = one patient, gastric cancer (PIK3CA E542K), 30 mg
[8] = one patient, ovarian cancer (PIK3CA E545A), 40 mg

## COC(=O)Nc1cc(C(F)(F)F)c(-c2nc(N3CCOCC3)c3cc(CN4CCN(S(C)(=O)=O)CC4)cn3n2)cn1 [CYH33, methyl (5-(6-((4-(methylsulfonyl)piperazin-1-yl)methyl)−4-morpholinopyrrolo[2,1-f][1,2,4]triazin-2-yl)−4-(trifluoromethyl)pyridin-2-yl)carbamate]
[1]; 1 mg, PIK3CA mutation Unknown
  Best percentage of change from baseline (sum of target lesion diameters), individual patient: 28.8%
  Best response, individual patient: PD
[1]; 5 mg, PIK3CA mutation Unknown
  Best percentage of change from baseline (sum of target lesion diameters), individual patient: 38.8%
  Best response, individual patient: PD
[1]; 10 mg, PIK3CA mutation Unknown
  Best percentage of change from baseline (sum of target lesion diameters), individual patient: -4.6% and 20.8%
  Best response, individual patient: SD and PD
[1]; 20 mg, PIK3CA E545K
  Best percentage of change from baseline (sum of target lesion diameters), individual patient: -84.4% and 13.7% and 12.6% and -23.8%
  Best response, individual patient: PR and PD and SD
[1]; 20 mg, PIK3CA mutation Unknown
  Best percentage of change from baseline (sum of target lesion diameters), individual patient: -6.4% and 1.0%
  Best response, individual patient: PD
[1]; 30 mg dose level
  confirmed ORR: 11.1%
[1]; 30 mg, PIK3CA E542K
  Best percentage of change from baseline (sum of target lesion diameters), individual patient: -22.2% and -39.5%
  Best response, individual patient: SD
[1]; 30 mg, PIK3CA E545K
  Best percentage of change from baseline (sum of target lesion diameters), individual patient: 9.7% and 23.8% and -61.8% and -16.5%
  Best response, individual patient: PD and PR and SD
[1]; 30 mg, PIK3CA H1047L
  Best percentage of change from baseline (sum of target lesion diameters), individual patient: -24.2%
  Best response, individual patient: SD
[1]; 30 mg, PIK3CA H1047R
  Best percentage of change from baseline (sum of target lesion diameters), individual patient: 12.5%
  Best response, individual patient: SD
[1]; 30 mg, PIK3CA mutation Other
  Best percentage of change from baseline (sum of target lesion diameters), individual patient: 10.0%
  Best response, individual patient: SD
[1]; 40 mg dose level
  confirmed ORR: 15.8%
[1]; 40 mg, PIK3CA E545A
  Best percentage of change from baseline (sum of target lesion diameters), individual patient: -100.0%
  Best response, individual patient: CR
[1]; 40 mg, PIK3CA E545K
  Best percentage of change from baseline (sum of target lesion diameters), individual patient: -47.1% and 13.1%
  Best response, individual patient: PR and PD
[1]; 40 mg, PIK3CA H1047R
  Best percentage of change from baseline (sum of target lesion diameters), individual patient: -20.0%
  Best response, individual patient: SD
[1]; 40 mg, PIK3CA Q546K
  Best percentage of change from baseline (sum of target lesion diameters), individual patient: -13.0%
  Best response, individual patient: SD
[1]; 40 mg, PIK3CA Q546R
  Best percentage of change from baseline (sum of target lesion diameters), individual patient: -36.0%
  Best response, individual patient: SD
[1]; 40 mg, PIK3CA mutation Other
  Best percentage of change from baseline (sum of target lesion diameters), individual patient: 8.1% and 2.2% and -29.0% and 12.8% and 7.7% and -28.9% and -13.9%
  Best response, individual patient: PD and SD and NE
[1]; 40 mg, PIK3CA mutation Unknown
  Best percentage of change from baseline (sum of target lesion diameters), individual patient: -66.7% and -13.8% and -13.1% and 28.3% and 0.0% and 38.8%
  Best response, individual patient: PR and SD and PD and NE
[1]; 60 mg, PIK3CA E545K
  Best percentage of change from baseline (sum of target lesion diameters), individual patient: 0.0%
  Best response, individual patient: SD
[1]; 60 mg, PIK3CA mutation Other
  Best percentage of change from baseline (sum of target lesion diameters), individual patient: 28.6%
  Best response, individual patient: PD
[1]; 60 mg, PIK3CA mutation Unknown
  Best percentage of change from baseline (sum of target lesion diameters), individual patient: -7.1% and 68.2%
  Best response, individual patient: PD
[1]; 1–20 mg dose level
  confirmed ORR: 10%
[1]; 42 evaluable patients
  patients with confirmed complete response: 1
  patients with confirmed partial responses (PR): 4
[1]; all evaluable patients (5/42)
  confirmed objective response rate (ORR; CR + PR): 11.9%
[1]; all evaluable patients (15/42)
  disease control rate (DCR; CR + PR + SD ≥ 6 weeks): 35.7%
[1]; breast cancer with PIK3CA mutations (2/5)
  confirmed response rate: 40%
[1]; [3]
  CBR: 1 (11.1) n (%)
  CR: 0 n (%)
  DCR (CR + PR + SD lasting ≥ 6 weeks): 1 (11.1) n (%)
  PR: 1 (11.1) n (%)
  confirmed ORR: 1 (11.1) n (%)
  mDoR (Kaplan–Meier): 80 days
  mPFS (Kaplan–Meier): 79 days
[1]; [4]
  CBR: 3 (15.8) n (%)
  CR: 1 (5.3) n (%)
  DCR (CR + PR + SD lasting ≥ 6 weeks): 10 (52.6) n (%)
  PR: 2 (10.5) n (%)
  confirmed ORR: 3 (15.8) n (%)
  mDoR (Kaplan–Meier): 152 days
  mPFS (Kaplan–Meier): 121 days
[1]; [5]
  CBR: 2 (20.0) n (%)
  CR: 0 n (%)
  DCR (CR + PR + SD lasting ≥ 6 weeks): 3 (30.0) n (%)
  PR: 1 (10.0) n (%)
  confirmed ORR: 1 (10.0) n (%)
  mDoR (Kaplan–Meier): 77 days
  mPFS (Kaplan–Meier): 47 days
[1]; [6]
  CBR: 6 (14.3) n (%)
  CR: 1 (2.4) n (%)
  DCR (CR + PR + SD lasting ≥ 6 weeks): 15 (35.7) n (%)
  PR: 4 (9.5) n (%)
  confirmed ORR: 5 (11.9) n (%)
  mDoR (Kaplan–Meier): 80 days
  mPFS (Kaplan–Meier): 79 days
[1]; evaluable patients harboring PIK3CA mutations (4/28)
  confirmed objective response rate: 14.3%
[1]; evaluable patients with PIK3CA mutations (13/28)
  DCR: 46.4%
[1]; one patient, breast cancer (Luminal B, HER2-, PIK3CA E545K), 40 mg
  DoR: 22.0 weeks
[1]; [7]
  time of progressive disease: 11 week
  time of treatment to PR: 6 weeks
[1]; [8]
  DoR (longest): 15.2 months
  time of treatment to CR: 29.3 weeks
  time of treatment to PR: 5.3 weeks
[1]; ovarian cancer with PIK3CA mutations (2/5)
  confirmed response rate: 40%
[2]
  permeability: moderately permeable

Reference: paper PMC9669016, “First-in-human phase Ia study of the PI3Kα inhibitor CYH33 in patients with solid tumors” (Nature Communications, 2022)
